pIC50: −log10 of the molar value.
What was measured:
human PRMT1 = biological target: T1, human PRMT1 (Homo sapiens, UniProt Q99873); assay: PRMT1 Biochemical Assay (3H-SAM Flashplate, peptide substrate); conditions: single experiment or average of multiple experiments
T1 construct: GST-tagged PRMT1; made in house; host or cells: High Five insect cells (baculovirus)
Procedure, shortened: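 GST-tagged PRMT1 from baculovirus-infected cells, preincubated with compounds 30 min at room temperature in 20 mM Bicine pH 7.6, 1 mM TCEP, 0.005% BSG, 0.002% Tween 20. Reaction started with ³H-SAM plus biotinylated peptide, stopped with 300 µM cold SAM.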

human PRMT8 = human PRMT8 (Homo sapiens, UniProt Q9NR22); assay: PRMT8 Biochemical Assay (3H-SAM Flashplate, peptide substrate); conditions: single experiment or average of multiple experiments
Chain of human PRMT8 (Q9NR22 whole entry, the tested form may be a part): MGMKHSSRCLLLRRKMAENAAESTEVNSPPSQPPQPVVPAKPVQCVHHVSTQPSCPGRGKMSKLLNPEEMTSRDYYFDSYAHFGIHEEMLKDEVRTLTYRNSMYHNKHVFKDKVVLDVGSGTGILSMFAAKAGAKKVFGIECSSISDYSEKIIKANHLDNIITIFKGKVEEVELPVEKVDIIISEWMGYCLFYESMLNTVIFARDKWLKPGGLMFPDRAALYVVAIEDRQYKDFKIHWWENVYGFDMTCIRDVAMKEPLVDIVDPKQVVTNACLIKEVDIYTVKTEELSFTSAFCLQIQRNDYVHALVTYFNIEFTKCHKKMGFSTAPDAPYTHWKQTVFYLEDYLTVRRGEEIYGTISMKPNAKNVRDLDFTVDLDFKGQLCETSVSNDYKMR
Procedure, shortened: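 Methylation of a biotin-tagged histone H4 peptide (residues 31-45) by recombinant PRMT8 was measured as 3H transfer from 3H-SAM, after a 30 min room-temperature compound preincubation in Bicine buffer pH 7.6. Reactions were quenched with unlabelled SAM to 400 uM final, then bound counts were read by streptavidin Flashplate. IC50 came from a Hill fit of % inhibition relative to max and SAH min controls.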

T1 sequence (Q99873 with tags, fused parts or gaps): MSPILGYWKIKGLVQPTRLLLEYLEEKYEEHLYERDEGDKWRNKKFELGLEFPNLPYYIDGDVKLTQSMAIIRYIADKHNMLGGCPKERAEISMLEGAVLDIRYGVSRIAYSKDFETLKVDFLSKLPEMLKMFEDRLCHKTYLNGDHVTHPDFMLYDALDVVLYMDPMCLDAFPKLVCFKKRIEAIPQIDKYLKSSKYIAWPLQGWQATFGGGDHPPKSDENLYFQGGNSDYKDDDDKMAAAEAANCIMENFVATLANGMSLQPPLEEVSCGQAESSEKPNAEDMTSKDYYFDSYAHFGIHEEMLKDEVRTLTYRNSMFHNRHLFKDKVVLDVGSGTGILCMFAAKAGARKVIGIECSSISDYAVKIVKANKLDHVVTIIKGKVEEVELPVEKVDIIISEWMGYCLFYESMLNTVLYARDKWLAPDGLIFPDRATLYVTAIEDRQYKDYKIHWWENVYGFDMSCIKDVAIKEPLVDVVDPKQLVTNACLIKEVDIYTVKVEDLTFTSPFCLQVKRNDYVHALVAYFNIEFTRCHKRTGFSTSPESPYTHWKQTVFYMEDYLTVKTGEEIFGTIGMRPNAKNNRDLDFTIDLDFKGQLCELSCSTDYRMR

## CNCCN(C)Cc1cn(C2CC2)nc1-c1ccc(F)cc1 [Compound 13]
Human PRMT1
  pIC50: 5.82

## CNCCN(C)Cc1cnn(C2CC2)c1-c1ccc(F)cc1 [Compound 14]
Human PRMT1
  pIC50: 6.91
Human PRMT8
  pIC50: 5.86

## CNCCN(C)Cc1cn(C(C)C)nc1-c1ccc(F)cc1 [Compound 15]
Human PRMT1
  pIC50: 5.36

## CNCCN(C)Cc1cnn(C(C)C)c1-c1ccc(F)cc1 [Compound 16]
Human PRMT1
  pIC50: 5.68

## CNCCN(C)Cc1cn[nH]c1-c1ccc(C#N)cc1 [Compound 17]
Human PRMT1
  pIC50: 7.86
Human PRMT8
  pIC50: 7.05

## CNCCN(C)Cc1cn[nH]c1-c1cc(F)cc(F)c1 [Compound 18]
Human PRMT1
  pIC50: 7.44
Human PRMT8
  pIC50: 6.32

## CN(CCN)Cc1n[nH]cc1-c1ccc(C2CCOCC2)cc1 [Compound 145]
Human PRMT1
  pIC50: 7.70
Human PRMT8
  pIC50: 6.78

## COc1ccc(-c2n[nH]cc2CN(C)CCN)c(Cl)c1 [Compound 146]
Human PRMT1
  pIC50: 7.33
Human PRMT8
  pIC50: 5.95

## CN(CCN)Cc1c[nH]nc1-c1cc(C#N)ccc1Cl [Compound 147]
Human PRMT1
  pIC50: 5.54

## CN(CCN)Cc1c[nH]nc1-c1ccc(C(F)(F)F)cc1F [Compound 148]
Human PRMT1
  pIC50: 6.92
Human PRMT8
  pIC50: 6.09

## CN(CCN)Cc1c[nH]nc1-c1cccc(N(C)C)c1 [Compound 149]
Human PRMT1
  pIC50: 7.21
Human PRMT8
  pIC50: 6.04

## CCOC(=O)c1cccc(-c2n[nH]cc2CN(C)CCN)c1 [Compound 150]
Human PRMT1
  pIC50: 7.15
Human PRMT8
  pIC50: 6.25

## COc1cc(F)ccc1-c1n[nH]cc1CN(C)CCN [Compound 151]
Human PRMT1
  pIC50: 6.91
Human PRMT8
  pIC50: 5.86

## Cc1cc(F)ccc1-c1n[nH]cc1CN(C)CCN [Compound 152]
Human PRMT1
  pIC50: 7.33
Human PRMT8
  pIC50: 6.01

## COc1ccc(-c2n[nH]cc2CN(C)CCN)cc1 [Compound 153]
Human PRMT1
  pIC50: 7.66
Human PRMT8
  pIC50: 6.88

## COc1ccc(-c2n[nH]cc2CN(C)CCN)c(C(F)(F)F)c1 [Compound 154]
Human PRMT1
  pIC50: 6.18
Human PRMT8
  pIC50: 5.21

## COc1ccc(-c2n[nH]cc2CN(C)CCN)c(C)c1 [Compound 155]
Human PRMT1
  pIC50: 7.22
Human PRMT8
  pIC50: 6.01

## CN(CCN)Cc1c[nH]nc1-c1cc(Cl)ccc1F [Compound 156]
Human PRMT1
  pIC50: 6.61
Human PRMT8
  pIC50: 5.77

## COc1ccc(Cl)cc1-c1n[nH]cc1CN(C)CCN [Compound 157]
Human PRMT1
  pIC50: 5.81
Human PRMT8
  pIC50: 5.23

## Cc1ccc(C#N)cc1-c1n[nH]cc1CN(C)CCN [Compound 158]
Human PRMT1
  pIC50: 5.63

## Cc1ccc(F)cc1-c1n[nH]cc1CN(C)CCN [Compound 159]
Human PRMT1
  pIC50: 7.14
Human PRMT8
  pIC50: 6.06

## COc1ccc(F)cc1-c1n[nH]cc1CN(C)CCN [Compound 160]
Human PRMT1
  pIC50: 6.78
Human PRMT8
  pIC50: 5.52

## Cc1ccccc1-c1n[nH]cc1CN(C)CCN [Compound 161]
Human PRMT1
  pIC50: 6.73
Human PRMT8
  pIC50: 5.68

## Cc1ccc(-c2n[nH]cc2CN(C)CCN)cc1 [Compound 162]
Human PRMT1
  pIC50: 7.77
Human PRMT8
  pIC50: 6.56

## CCN(C)C(=O)c1ccc(-c2n[nH]cc2CN(C)CCN)cc1 [Compound 163]
Human PRMT1
  pIC50: 6.94
Human PRMT8
  pIC50: 5.84

## CC(C)CN(C)C(=O)c1ccc(-c2n[nH]cc2CN(C)CCN)cc1 [Compound 164]
Human PRMT1
  pIC50: 6.97
Human PRMT8
  pIC50: 5.66

## CCOc1ccc(-c2n[nH]cc2CN(C)CCN)cc1 [Compound 166]
Human PRMT1
  pIC50: 8.14
Human PRMT8
  pIC50: 6.72

## COCCOc1ccc(-c2n[nH]cc2CN(C)CCN)cc1 [Compound 167]
Human PRMT1
  pIC50: 8.03
Human PRMT8
  pIC50: 6.55

## Cc1[nH]nc(-c2ccc(F)cc2)c1CN(C)CCN [Compound 169]
Human PRMT1
  pIC50: 6.51
Human PRMT8
  pIC50: 5.52

## CC(C)Cc1ccc(-c2c[nH]nc2CN(C)CCN)cc1 [Compound 170]
Human PRMT1
  pIC50: 7.94
Human PRMT8
  pIC50: 6.80

## NCCN(CCO)Cc1c[nH]nc1-c1ccc(F)cc1 [Compound 171]
Human PRMT1
  pIC50: 6.03
Human PRMT8
  pIC50: 5.58

## CN(CCN)Cc1c[nH]nc1-c1ccc(OCCN2CCOCC2)cc1 [Compound 172]
Human PRMT1
  pIC50: 6.64
Human PRMT8
  pIC50: 5.49

## CN(CCN)Cc1c[nH]nc1-c1ccc2c(c1)NC(=O)CO2 [Compound 173]
Human PRMT1
  pIC50: 6.78
Human PRMT8
  pIC50: 5.51

## CNCCN(C)Cc1c[nH]nc1-c1ccc(C(F)(F)F)cc1 [Compound 174]
Human PRMT1
  pIC50: 7.92
Human PRMT8
  pIC50: 6.64

## CNCCN(C)Cc1c[nH]nc1-c1ccc(OC2CCOCC2)cc1 [Compound 175]
Human PRMT1
  pIC50: 7.98

## CC(C)Oc1ccc(-c2nn(C)cc2CN(C)CCN)cc1 [Compound 176]
Human PRMT1
  pIC50: 7.94

## CC(C)Oc1ccc(-c2c(CN(C)CCN)cnn2C)cc1 [Compound 177]
Human PRMT1
  pIC50: 8.00

## CN(CCN)Cc1c[nH]nc1-c1ccc(OC2CCOCC2)cc1 [Compound 178]
Human PRMT1
  pIC50: 8.08

## COCCCOc1ccc(-c2n[nH]cc2CN(C)CCN)cc1 [Compound 179]
Human PRMT1
  pIC50: 7.76

## CNCCN(C)Cc1c[nH]nc1-c1ccc(OC(C)C)c(F)c1 [Compound 181]
Human PRMT1
  pIC50: 8.30

## CNCCN(C)Cc1c[nH]nc1-c1ccc(Cl)c(F)c1 [Compound 182]
Human PRMT1
  pIC50: 8.32
Human PRMT8
  pIC50: 6.57

## CN(CCN(C)C1CC1)Cc1c[nH]nc1-c1ccc(C#N)cc1 [Compound 184]
Human PRMT1
  pIC50: 5.80
Human PRMT8
  pIC50: 5.52

## CN(CCN1CCC1)Cc1c[nH]nc1-c1ccc(C#N)cc1 [Compound 185]
Human PRMT1
  pIC50: 5.95
Human PRMT8
  pIC50: 5.36

## CC(C)Oc1cccc(-c2n[nH]cc2CN(C)CCN)c1 [Compound 187]
Human PRMT1
  pIC50: 6.83
Human PRMT8
  pIC50: 5.77

## CC(C)Oc1cc(-c2n[nH]cc2CN(C)CCN)ccc1F [Compound 188]
Human PRMT1
  pIC50: 6.79
Human PRMT8
  pIC50: 5.54

## CCC(=O)N1CCN(c2ccc(-c3n[nH]cc3CN(C)CCN)cc2)CC1 [Compound 189]
Human PRMT1
  pIC50: 6.32
Human PRMT8
  pIC50: 5.52

## CC(C)CN1C(=O)COc2ccc(-c3n[nH]cc3CN(C)CCN)cc21 [Compound 191]
Human PRMT1
  pIC50: 6.18
Human PRMT8
  pIC50: 5.39

## CN(CCN)Cc1c[nH]nc1-c1ccc2c(c1)OCC(=O)N2C [Compound 192]
Human PRMT1
  pIC50: 6.92
Human PRMT8
  pIC50: 5.70

## CC(C)CN1C(=O)COc2cc(-c3n[nH]cc3CN(C)CCN)ccc21 [Compound 193]
Human PRMT1
  pIC50: 7.20
Human PRMT8
  pIC50: 6.07

## CN(CCN)Cc1c[nH]nc1-c1ccc(OCCO)cc1 [Compound 194]
Human PRMT1
  pIC50: 7.85
Human PRMT8
  pIC50: 6.43

## CN(CCN)Cc1c[nH]nc1-c1ccc(OCCCO)cc1 [Compound 195]
Human PRMT1
  pIC50: 7.94
Human PRMT8
  pIC50: 6.40

## CN(CCN)Cc1c[nH]nc1-c1ccc2c(c1)N(C)C(=O)CO2 [Compound 196]
Human PRMT1
  pIC50: 6.68
Human PRMT8
  pIC50: 5.59

## CCNC(=O)c1cccc(-c2n[nH]cc2CN(C)CCN)c1 [Compound 197]
Human PRMT1
  pIC50: 6.17
Human PRMT8
  pIC50: 5.68

## CCN(C)C(=O)c1cccc(-c2n[nH]cc2CN(C)CCN)c1 [Compound 198]
Human PRMT1
  pIC50: 5.66

## Cc1cc(-c2n[nH]cc2CN(C)CCN)cc(C)c1OC(C)C [Compound 199, N^1-((3-(4-isopropoxy-3,5-dimethylphenyl)-1H-pyrazol-4-yl)methyl)-N^1-methylethane-1,2-diamine]
Human PRMT1
  pIC50: 7.82
Human PRMT8
  pIC50: 6.34

## CN(CCN)Cc1c[nH]nc1-c1ccc(Oc2ccccc2)c(C#N)c1 [Compound 202]
Human PRMT1
  pIC50: 8.37
Human PRMT8
  pIC50: 6.73

## CN(CCN)Cc1n[nH]cc1-c1ccc(Oc2ccccc2)cc1 [Compound 203]
Human PRMT1
  pIC50: 8.37
Human PRMT8
  pIC50: 6.73

## CNCCN(C)Cc1n[nH]cc1-c1ccc(Oc2ccccc2)cc1 [Compound 204]
Human PRMT1
  pIC50: 8.50
Human PRMT8
  pIC50: 7.16

## CN(CCN)Cc1c[nH]nc1-c1ccc(Oc2cccc(F)c2)cc1 [Compound 205]
Human PRMT1
  pIC50: 8.61
Human PRMT8
  pIC50: 6.54

## CNCCN(C)Cc1cn(C)nc1-c1ccc(OC(C)C)c(Cl)c1 [Compound 206]
Human PRMT1
  pIC50: 8.15
Human PRMT8
  pIC50: 6.46

## CNCCN(C)Cc1cn(C)nc1-c1ccc(Oc2ccccc2)cc1 [Compound 207]
Human PRMT1
  pIC50: 8.21
Human PRMT8
  pIC50: 6.20

## CNCCN(C)Cc1cnn(C)c1-c1ccc(Oc2ccccc2)cc1 [Compound 208]
Human PRMT1
  pIC50: 8.38
Human PRMT8
  pIC50: 6.55

## CNCCN(C)Cc1c[nH]nc1-c1ccc(OCCCOC)cc1 [Compound 209]
Human PRMT1
  pIC50: 8.28
Human PRMT8
  pIC50: 6.32

## CNCCN(C)Cc1n[nH]cc1-c1ccc(OC(C)C)c(F)c1 [Compound 210]
Human PRMT1
  pIC50: 8.06
Human PRMT8
  pIC50: 6.74

## CC(C)Oc1ccc(-c2c[nH]nc2CN(C)CCN)cc1Cl [Compound 211]
Human PRMT1
  pIC50: 8.22
Human PRMT8
  pIC50: 6.93

## CNCCN(C)Cc1n[nH]cc1-c1ccc(OC(C)C)c(Cl)c1 [Compound 212]
Human PRMT1
  pIC50: 8.19
Human PRMT8
  pIC50: 7.39

## CCn1cc(CN(C)CCNC)c(-c2ccc(OC(C)C)cc2)n1 [Compound 213]
Human PRMT1
  pIC50: 7.58

## CNCCN(C)Cc1cn(C2CCCC2)nc1-c1ccc(OC(C)C)cc1 [Compound 214]
Human PRMT1
  pIC50: 7.28

## CNCCN(C)Cc1cn(C2CCOC2)nc1-c1ccc(OC(C)C)cc1 (stereo not shown) [Compound 215]
Human PRMT1
  pIC50: 7.09

## CNCCN(C)Cc1cnn(C2CCOC2)c1-c1ccc(OC(C)C)cc1 (stereo not shown) [Compound 216]
Human PRMT1
  pIC50: 7.67

## CNCCN(C)Cc1cn(Cc2ccccc2)nc1-c1ccc(OC(C)C)cc1 [Compound 217]
Human PRMT1
  pIC50: 7.73

## C=CCn1cc(CN(C)CCNC)c(-c2ccc(OC(C)C)cc2)n1 [Compound 218]
Human PRMT1
  pIC50: 7.23

## C=CCn1ncc(CN(C)CCNC)c1-c1ccc(OC(C)C)cc1 [Compound 219]
Human PRMT1
  pIC50: 7.73

## CNCCN(C)Cc1c[nH]nc1-c1ccc(Oc2ccccc2)c(C#N)c1 [Compound 221]
Human PRMT1
  pIC50: 8.19
Human PRMT8
  pIC50: 6.48

## CN(CCN)Cc1c(-c2ccc(C#N)cc2)ncn1C [Compound 222]
Human PRMT1
  pIC50: 5.90
Human PRMT8
  pIC50: 5.05

## CN(CCN)Cc1c[nH]nc1-c1ccc(Oc2ccccc2)c(F)c1 [Compound 224, N^1-((3-(3-fluoro-4-phenoxyphenyl)-1H-pyrazol-4-yl)methyl)-N^1-methylethane-1,2-diamine]
Human PRMT1
  pIC50: 8.60
Human PRMT8
  pIC50: 6.46
